Columns and labels:
[1] = biological target: T1, GB1a/2 receptors (Homo sapiens, UniProt O75899+Q9UBS5); test: PKA luminescence assay (R-RLuc-N / C-RLuc-C) of Gαi signaling in HEK293T cells
[2] = biological target: T1, GB1a/2 receptors; test: SRE-luciferase accumulation assay (Gαqi/PLC) in HEK293T-Gαqi cells; conditions: constitutive and GABA-induced FLuc activity
[3] = biological target: T1, GB1a/2 receptors; test: BRET assay of G protein activation (Gαo-RLuc / Venus-Gγ2) in HEK293T cells; type: cell-based; set-up: Flag (N); expressed in transfected cells; host or cells: HEK293T cells stably expressing chimeric Gαqi; conditions: GABA or CGP54626, 10 μM
Procedure: We directly tested whether APP17 influences G protein activation by GBRs in transfected HEK293T cells. […] HEK293T cells were transiently transfected with Flag-GB1a, Flag-GB2, Gαo-RLuc, Gβ2, and Venus-Gγ2 plasmids with or without APP695. In order to ensure APP695 binding to GB1a/2 in trans a pool of HEK293T cells expressing APP695 was mixed with a pool of HEK293T cells expressing Flag-GB1a, Flag-GB2, Gαo-RLuc, Gβ2, and Venus-Gγ2. Transfected cells were seeded into 96-well microplates (Greiner Bio-One) at 100,000 cells/well. After 18 hr, cells were washed and coelenterazine h (5 µM, NanoLight Technologies, Prolume Ltd., Pinetop-Lakeside, AZ, USA) added for 5 min. […] BRET ratios were adjusted by subtracting the ratios obtained when RLuc fusion proteins were expressed alone. Each data point represents a technical quadruplicate.

[4] = tested on: mGlu5 receptors; test: Ca^2+ mobilization assay (Calcium 6) in HEK293T cells expressing mGlu5; type: cell-based; conditions: 1 and 10 µM
[5] = biological target: T1, GB1a/2 receptors; test: Ca^2+ mobilization assay (Calcium 6) in HEK293T cells expressing GB1a/2; type: cell-based; set-up: Flag (N); expressed in transfected cells; host or cells: HEK293T cells stably expressing chimeric Gαqi; conditions: 1 or 10 μM
[6] = tested on: spontaneous neuronal activity in the auditory cortex; test: two-photon Ca^2+ imaging of auditory cortex in anesthetized mice; conditions: 5 µM perfused over cortex; peptides 60 min, baclofen 15 min
[7] = tested on: GBR-activated K^+ currents in cultured hippocampal neurons; test: K^+ currents in cultured hippocampal neurons (patch-clamp); type: cell-based, mouse
Procedure: APP17 signaling through native GBRs may depend on protein-protein interactions that are not preserved in the membrane preparations used for the [^35S]GTPγS binding assay. Therefore, we tested whether APP17 influences GBR-mediated Gβγ signaling to K^+ channels in cultured hippocampal neurons using patch-clamp electrophysiology, which preserves the native environment of receptors ([Schuler et al., 2001]; [Vigot et al., 2006]). […] . Neuronal cultures and HEK293T cells were prepared as described ([Dinamarca et al., 2019]). Coverslips with hippocampal neurons (DIV 12–15) or HEK293T cells were transferred to a chamber containing a low-K^+ bath solution (in mM): 145 NaCl, 4 KCl, 5 HEPES, 5.5 D-glucose, 1 MgCl2, and 1.8 CaCl2 (pH 7.4 adjusted with NaOH). Recordings were performed at room temperature using borosilicate pipettes of 3–5 MΩ resistance tips, filled with K-gluconate-based pipette solution (in mM): 150 K-gluconate, 1.1 EGTA, 10 HEPES, 10 Tris-phosphocreatine, 0.3 NaGTP, and 4 MgATP (pH 7.2 adjusted with KOH). Upon achieving whole-cell access, cells were held in voltage-clamp mode at −70 mV (with no correction for liquid junction potential) and baclofen-induced K^+ currents were induced in a high-K^+ bath solution (in mM): 120 NaCl, 25 KCl, 5 HEPES, 5.5 D-glucose, 1 MgCl2, and 1.8 CaCl2 (pH 7.4 adjusted with NaOH). […] Schaffer collaterals were stimulated at 0.1 Hz with brief current pulses via bipolar Pt/Ir wires. Evoked EPSCs were recorded at –60 mV with a Cs^+-based intracellular solution. Baclofen and peptides were bath applied in standard ACSF at room temperature. We recorded mEPSCs in primary neuronal cultures established from embryonic (E15–17) murine hippocampus at DIV13–16 in the presence of 0.5 μM TTX at room temperature ([Dinamarca et al., 2019]). APP17 (250 nM) and (R)-baclofen (30 μM) were applied via superfusion. Template matching with pClamp 10 software (Molecular Devices) was used to detect individual mEPSCs.

[8] = tested on: GB1a/2 receptors in HEK293T cells; test: APP17-TMR binding / displacement at GB1a/2 receptors in HEK293T cells; conditions: 10 μM peptide
Procedure: Transfected HEK293T cells expressing Flag-GB1a and Flag-GB2 were seeded into 96-well microplates (Greiner Bio-One, Kremsmünster, Austria) at 50,000 cells/well. After 18 hr, peptides were mixed with conditioned medium at the following final concentrations: APP17-TMR (1 µM) with either APP17 (10 µM), sc-APP17 (10 µM), or PBS (vehicle); sc-APP17-TMR (1 µM) in PBS was used as a negative control. After removal of medium, peptide mixes were added to the wells and cells incubated in the dark for 1 hr at room temperature. After removal of the peptides, PBS with MgCl2 and CaCl2 (Sigma-Aldrich) was added to the wells. TMR fluorescence was monitored with a Spark microplate reader (Tecan Group, Männerdorf, Switzerland) using a monochromator (Excitation 544 nm, […] bandwidth; detection […], 25 nm bandwidth). TMR fluorescence was determined after subtraction of the sc-APP17-TMR fluorescence measured at HEK293T cells transfected with pCI plasmid.

[9] = tested on: GB1a/2 receptor-induced Kir3 currents in HEK293T cells; test: Kir3 K^+ currents in transfected HEK293T cells (patch-clamp); type: cell-based
[10] = biological target: T1, GB1a/2 receptors; test: inter-subunit FRET conformational sensor (HA-GB1a-ACP / Flag-SNAP-GB2) in HEK293T cells; conditions: for Fig. 2c value, 10mM GABA / Fig. 2c value, Basal: + Vehicle Basal given as 100; for Fig. 2c value, Basal: Basal (no GABA)

T1 sequence (Q9UBS5 15-961 limits assumed): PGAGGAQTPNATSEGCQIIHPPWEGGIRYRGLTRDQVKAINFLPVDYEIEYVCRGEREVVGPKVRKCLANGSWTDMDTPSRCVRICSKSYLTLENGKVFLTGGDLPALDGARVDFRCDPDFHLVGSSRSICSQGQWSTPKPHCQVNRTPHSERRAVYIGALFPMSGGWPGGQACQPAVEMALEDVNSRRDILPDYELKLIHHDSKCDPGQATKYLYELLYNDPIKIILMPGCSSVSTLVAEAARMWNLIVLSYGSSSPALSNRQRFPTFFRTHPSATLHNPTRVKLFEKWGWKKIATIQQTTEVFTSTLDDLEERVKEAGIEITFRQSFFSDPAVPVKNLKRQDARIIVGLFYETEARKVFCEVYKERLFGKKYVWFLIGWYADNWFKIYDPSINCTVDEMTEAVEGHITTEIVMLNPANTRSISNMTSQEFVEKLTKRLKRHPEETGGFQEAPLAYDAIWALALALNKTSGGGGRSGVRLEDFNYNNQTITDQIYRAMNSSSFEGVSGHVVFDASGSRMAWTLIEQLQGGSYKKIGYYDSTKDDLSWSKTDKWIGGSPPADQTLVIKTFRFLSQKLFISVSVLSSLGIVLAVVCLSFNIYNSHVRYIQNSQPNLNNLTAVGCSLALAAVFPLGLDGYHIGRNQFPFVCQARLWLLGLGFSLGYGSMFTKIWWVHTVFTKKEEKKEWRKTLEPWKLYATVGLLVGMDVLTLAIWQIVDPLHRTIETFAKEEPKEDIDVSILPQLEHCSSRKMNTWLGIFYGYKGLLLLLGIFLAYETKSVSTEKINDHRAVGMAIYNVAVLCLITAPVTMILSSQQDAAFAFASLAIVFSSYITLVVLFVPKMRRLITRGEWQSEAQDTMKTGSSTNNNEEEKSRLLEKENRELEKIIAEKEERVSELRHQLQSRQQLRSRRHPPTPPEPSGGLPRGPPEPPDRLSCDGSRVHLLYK
T1 sequence (O75899 42-941 partner): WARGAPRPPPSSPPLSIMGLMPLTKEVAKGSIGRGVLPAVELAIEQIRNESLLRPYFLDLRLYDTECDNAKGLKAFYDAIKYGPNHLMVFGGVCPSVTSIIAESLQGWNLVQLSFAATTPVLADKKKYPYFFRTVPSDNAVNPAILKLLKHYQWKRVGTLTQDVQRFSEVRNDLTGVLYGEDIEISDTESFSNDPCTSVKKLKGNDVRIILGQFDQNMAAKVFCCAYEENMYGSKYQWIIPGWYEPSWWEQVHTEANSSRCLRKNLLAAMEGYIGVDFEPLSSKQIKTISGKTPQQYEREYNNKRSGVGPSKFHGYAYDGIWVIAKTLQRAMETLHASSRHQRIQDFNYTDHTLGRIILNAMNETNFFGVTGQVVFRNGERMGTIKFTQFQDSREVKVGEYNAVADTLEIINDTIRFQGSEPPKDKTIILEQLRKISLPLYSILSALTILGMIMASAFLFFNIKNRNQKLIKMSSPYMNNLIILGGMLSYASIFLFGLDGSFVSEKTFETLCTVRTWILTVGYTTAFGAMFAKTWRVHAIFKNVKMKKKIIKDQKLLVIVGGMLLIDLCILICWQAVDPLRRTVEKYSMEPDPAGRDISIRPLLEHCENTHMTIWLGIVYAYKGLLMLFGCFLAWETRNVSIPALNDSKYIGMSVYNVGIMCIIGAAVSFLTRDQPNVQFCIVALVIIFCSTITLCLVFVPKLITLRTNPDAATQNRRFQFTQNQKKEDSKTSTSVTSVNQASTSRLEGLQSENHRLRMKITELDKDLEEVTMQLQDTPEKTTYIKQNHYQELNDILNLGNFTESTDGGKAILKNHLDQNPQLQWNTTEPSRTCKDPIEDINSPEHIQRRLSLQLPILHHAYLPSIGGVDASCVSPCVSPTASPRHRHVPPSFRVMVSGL

With `C[C@H](NC[C@H](O)CP(=O)(O)CC1CCCCC1)c1ccc(Cl)c(Cl)c1` [CGP54626] the “luminescence change by receptor ligand (in words)” value ([1]; GABA 10 μM or CGP54626 10 μM, forskolin) was “decreased luminescence below baseline”, the “block of receptor activity (in words)” value [2] was “blocked constitutive and GABA-induced receptor activity” and the “BRET change by receptor ligand (in words)” value [3] was “increased BRET above baseline”.

For `N[C@H](C(=O)O)c1cc(O)cc(O)c1` [DHPG], the “intracellular Ca^2+ mobilization (in words)” value [4] was “concentration-dependent increase in intracellular Ca^2+”.

For Ac-DWGADTVSGDGYDAWDD-NH2 [sc-APP17], the “intracellular Ca^2+ mobilization (in words)” value [5] was “did not increase intracellular Ca^2+”, the “GABA-mediated PKA inactivation in presence of peptide (in words)” value ([1]; 10 μM peptide) was “GABA-mediated PKA inactivation was comparable” and the “effect of peptide alone on luminescence/receptor activity (in words)” value ([1]; 10 μM peptide) was “no agonistic, inverse agonistic, or antagonistic properties”. The “receptor activity with APP695 in cis (in words)” value ([1]; peptide, APP695 in cis) was “did not significantly alter GB1/2 receptor activity”, the “spontaneous Ca^2+ transients (in words)” value [6] was “no significant effect compared to ACSF” and the “baclofen-induced K^+ currents in presence of peptide (in words)” value ([7]; 5 µM peptide + 5 µM baclofen) was “elicited currents of similar amplitudes as baclofen alone”. For the same compound, the “K^+ currents evoked by compound alone (in words)” value ([7]; 5 µM, -70 mV) was “did not elicit any currents”, the “displacement of 1 μM APP17-TMR from GB1a/2 receptors (in words)” value [8] was “not sc-APP17 displaced 1 μM APP17-TMR from GB1a/2 receptors” and the “GABA-induced Kir3 currents in presence of peptide (in words)” value ([9]; 5 µM GABA) was “nor did the peptides alter K^+ currents in the presence of 5 µM GABA”. The “Kir3 K^+ currents evoked by compound alone (in words)” value ([9]; transfected HEK293T cells) was “did not trigger K^+ currents”, the “Fig. 2c value, 10mM GABA” value ([10]; 1 µM peptide with 10mM GABA, replicate 2) was 29.41 and the “Fig. 2c value, 10mM GABA” value ([10]; 1 µM peptide with 10mM GABA, replicate 3) was 73.18. The “Fig. 2c value, 10mM GABA” value ([10]; 1 µM peptide with 10mM GABA, replicate 4) was 69.99, the “Fig. 2c value, 10mM GABA” value ([10]; 1 µM peptide with 10mM GABA, replicate 5) was 51.73 and the “Fig. 2c value, 10mM GABA” value ([10]; 1 µM peptide with 10mM GABA, replicate 6) was 86.53. The “Fig. 2c value, Basal” value ([10]; 1 µM peptide, replicate 1) was 88.34, the “Fig. 2c value, Basal” value ([10]; 1 µM peptide, replicate 2) was 87.73 and the “Fig. 2c value, Basal” value ([10]; 1 µM peptide, replicate 3) was 107.5. The “Fig. 2c value, Basal” value ([10]; 1 µM peptide, replicate 4) was 102.7, the “Fig. 2c value, Basal” value ([10]; 1 µM peptide, replicate 5) was 121 and the “Fig. 2c value, Basal” value ([10]; 1 µM peptide, replicate 6) was 65.57. The “Fig. 2c value, 10mM GABA” value ([10]; 10 µM peptide with 10mM GABA, replicate 1) was 53.02, the “Fig. 2c value, 10mM GABA” value ([10]; 10 µM peptide with 10mM GABA, replicate 2) was 53.95 and the “Fig. 2c value, 10mM GABA” value ([10]; 10 µM peptide with 10mM GABA, replicate 3) was 60.06. The “Fig. 2c value, 10mM GABA” value ([10]; 10 µM peptide with 10mM GABA, replicate 4) was 60.44, the “Fig. 2c value, 10mM GABA” value ([10]; 10 µM peptide with 10mM GABA, replicate 6) was 23.67 and the “Fig. 2c value, Basal” value ([10]; 10 µM peptide, replicate 1) was 90.75. For the same compound, the “Fig. 2c value, Basal” value ([10]; 10 µM peptide, replicate 2) was 69.76, the “Fig. 2c value, Basal” value ([10]; 10 µM peptide, replicate 3) was 95.95 and the “Fig. 2c value, Basal” value ([10]; 10 µM peptide, replicate 4) was 91.68. For the same compound, the “Fig. 2c value, Basal” value ([10]; 10 µM peptide, replicate 5) was 104.2, the “Fig. 2c value, Basal” value ([10]; 10 µM peptide, replicate 6) was 90.96 and the “FRET in the presence of 10 mM GABA (in words)” value ([10]; 1 or 10 μM peptide + 10 mM GABA) was “no significant differences in FRET”. The “FRET, basal, peptide alone (in words)” value ([10]; 1 or 10 μM peptide without GABA) was “no significant changes in FRET”.
